From a melting point compilation (Tetko et al.; mined from patent text by program, amines drawn as free bases though some values may be those of a salt) come the findings set out here.

The structures appear in SMILES notation.

As for `COc1cccc2c(Nc3ccccc3)nc(Cl)nc12`, the melting point lay within 245 to 246 °C.

In the case of `COc1ccc(Cl)cc1-c1c(N)c(=O)[nH]c2cc(C(F)(F)F)cc(C(F)(F)F)c12`, the melting point was 265 to 267 °C.

The compound `CC(C)CC(=O)Nc1ccc(-c2ccncc2)cc1` came in with a melting point of 166 to 176 °C.

For `COCc1cc(C(C)(C)C)cc(COC)c1SSc1c(COC)cc(C(C)(C)C)cc1COC`, the melting point lay within 94 to 95 °C.

For the compound `CC(=O)Nc1cc(Br)nn1-c1c(Cl)cc(C(F)(F)F)cc1Cl`, the melting point is 180 to 187 °C.

In turn, `Cc1c(C(=O)Nc2ccc(N3CCC(N4CCCCC4)CC3)c(C#N)c2)cnn1-c1ccc(F)cc1` returned a melting point of 237 to 238 °C.

Turning to `COc1cc(C=CCn2cncn2)ccc1OCc1ccccc1`, the melting point was 70 to 72 °C.

`CCOc1cc(C2=NN(c3ccccc3)C(=O)[C@H]3CC=CC[C@@H]23)ccc1OC` (relative stereo) had a melting point of 97 to 99 °C.

The compound `Cc1cc(OCc2sc(-c3ccc(C(F)(F)F)cc3)nc2C)ccc1OCC(=O)O` displayed a melting point of 174 to 176 °C.

Compound `CC(C)COC(=O)Nc1ccc(C2CCSCC2)cc1` had a melting point of 126 to 128 °C.

Consider `CCOC(=O)C(=O)Nc1c([N+](=O)[O-])cc(C(C)=O)c2c1CCCC2`, for which the melting point lay in the range of 120 to 121 °C.

`COC(=O)CCC(C#N)(CCC(=O)OC)c1ccc(OC)c(OC)c1` displayed a melting point of 72 to 73 °C.

For the compound `COC(=O)c1ccc2c(c1)ncn2Cc1ccccc1`, the melting point lay in the range of 156 to 162 °C.

Turning to `C=CCCC(O)=C(C#N)C(=O)Nc1ccc(C(F)(F)F)cc1`, the melting point turned out to be 145 °C.

In turn, `CSCC1=C(c2ccccc2)C(=O)N(C(C)(C)C(=O)O)CO1` showed a melting point of 136 to 137 °C.

Regarding `Cc1cn2cccc(C=O)c2n1`, the melting point lay within 123 to 125 °C.

For `Cc1ccc(C(=O)c2cc([N+](=O)[O-])ccc2Cl)cc1`, the melting point was 121 °C.

On to `O=[N+]([O-])c1ccc(S(=O)(=O)CCO)cc1O`, for which the melting point was 140 to 142 °C.

For the compound `CS(=O)c1ccc(COC(=O)N2CCN(CC3(C)Cn4cc([N+](=O)[O-])nc4O3)CC2)cc1` (stereo unspecified), the melting point is 117 to 121 °C.

On to `O=C1CC[C@H]2N1CCN1C(=O)C[C@H]3CCCC[C@@]321` (relative stereo), for which the melting point is 135 to 136 °C.

`CN(C)CC(=O)N1CC(=Cc2ccccc2)C2=NN(C)C(c3ccccc3)C2C1` (stereo unspecified) gave a melting point of 132 to 134 °C.

Consider `BrCc1cc(-c2ccccc2)no1`, for which the melting point was found to be 87 °C.

In turn, `c1ccc2c(c1)ccn2Nc1ccncn1` had a melting point of 81 to 85 °C.

`CC(=O)SCCNC(=O)[C@H](CSC(C)=O)NC(=O)C(C)C` displayed a melting point of 125 to 127 °C.

Compound `COC(=O)c1cc(N)ccc1OC(C)=O` gave a melting point of 99 to 100 °C.

In turn, `Nc1c(Br)cc(-c2nc3ccccc3s2)cc1Br` gave a melting point of 201 to 203 °C.

With `Nc1ccc(C=CC(=O)N2CCc3c([nH]c4ccccc34)C2c2ccc3c(c2)CCO3)cc1` (stereo unspecified), the melting point stood at 183 °C.

Take `CC(C)(C)OC(=O)Oc1ccc([N+](=O)[O-])cc1`: the melting point fell in the range of 73 to 74.5 °C.

Compound `CCc1cc(NC(=O)N2CCC(C(=O)O)(c3ccccc3)CC2)c(OC)nc1C` had a melting point of 173 to 174 °C.

Compound `Cc1cc(OCc2cnc(-c3ccc(C(F)(F)F)cc3)cc2C(F)(F)F)ccc1OC(C)(C)C(=O)O` came in with a melting point of 148 to 149 °C.

`COc1ccc2c(c1)S(=O)(=O)NC(C)N2` (stereo unspecified) showed a melting point of 208 to 218 °C.

Take `CCN(CC)C(=O)N1CCc2c([N+](=O)[O-])cc3[nH]c(=O)c(=O)[nH]c3c2C1`: the melting point is > 300 °C.

The compound `NC(=S)N1CCSC1c1ccccc1OCCN1CCN(c2cccc(F)c2)CC1` (stereo unspecified) registered a melting point of 136 to 137 °C.

The compound `CCOC(=O)C1Nc2ccccc2S(=O)(=O)n2cccc21` (stereo unspecified) gave a melting point of 131 to 134 °C.

Turning to `O=C(C=Cc1cccc(-c2ccc(F)cc2)c1)Nc1ccc(CN2CCCCC2)cc1`, the melting point was 166 to 167 °C.

With `O=C(OCC(O)CO)c1cc(F)ccc1Nc1ccnc2cc(C(F)(F)F)ccc12` (stereo unspecified), the melting point was in the range of 167 to 168 °C.

With `CCOC(=O)c1ccc(C=C(C)c2ccc3c(c2)OCCC3(C)C)cc1`, the melting point lay within 48 to 50 °C.

Regarding `CC(=O)N(CCC1CCCCN1CCC(C(N)=O)c1ccccc1Cl)C(C)C` (stereo unspecified), the melting point was in the range of 140 to 141 °C.

As to `Cc1ccc2c(Br)c(Cl)cc([N+](=O)[O-])c2n1`, the melting point was in the range of 141 to 142 °C.

`CCNC(=O)NCCCNn1c(COCC)nc2c(N)nc3ccccc3c21` came in with a melting point of 138 to 141 °C.

The compound `S=C=Nc1cc(-c2nc(-c3ccco3)no2)ccc1Cl` returned a melting point of 131 to 132 °C.

Regarding `Cc1ccc(S(=O)(=O)OCCC(=C(c2ccccc2)c2ccccc2)c2ccccc2)cc1`, the melting point lay in the range of 137 to 139 °C.

In turn, `CC(=NOCCOc1ccc(CC2OC(=O)NC2=O)cc1)c1ccc(-c2ccccc2)cc1` (stereo unspecified) came in with a melting point of 177 to 179 °C.

`CCOC(=O)NNC(=O)NCCCl` had a melting point of 118 to 120 °C.

The compound `CC=Cn1c(C(F)(F)F)nn(-c2c([N+](=O)[O-])cc(C(F)(F)F)cc2[N+](=O)[O-])c1=O` displayed a melting point of 136 °C.

Compound `CC(O)C(=O)c1ccc(F)cc1F` (stereo unspecified) registered a melting point of 49 to 51 °C.

Regarding `Cc1ccccc1C(=O)Nc1ccc(C(=O)N2CCCC(OCC(=O)O)c3cc(Cl)ccc32)cn1` (stereo unspecified), the melting point lay within 220 to 222 °C.

`CCCc1cc(NC(=O)C(=O)OCC)sc1C(=O)OCC` returned a melting point of 93 to 94 °C.

As to `CCCN1CC(Nc2ccc3c(c2)CCO3)CC2c3cccc4c3c(cn4C)CC21` (stereo unspecified), the melting point is 137 to 138 °C.

`CC(=O)N1c2ccccc2-c2c([N+](=O)[O-])cnn2C1(C)C` returned a melting point of 182 to 183 °C.

As for `CCn1ncc2nc(C#N)c(OCCC(C)C)nc21`, the melting point lay within 78 to 80 °C.

`CCCC(Cc1ccccc1)c1nc2c([nH]1)c(=O)n(CCC)c(=O)n2CCC` (stereo unspecified) came in with a melting point of 158 to 160 °C.

`COC(=O)C(=C(C)C)N1C(=O)C(NC(=O)COc2ccccc2)C1SN1CCCCC1` (stereo unspecified) came in with a melting point of 65 °C.

In the case of `FC(F)(F)COc1ccc(-c2cc(C(F)(F)F)n3ncc(-c4cccnc4)c3n2)cc1C(F)(F)F`, the melting point is 181 °C.

In turn, `CCCCC(=O)c1ccc(Cl)c(Cl)c1` showed a melting point of 40 to 41 °C.

In turn, `NC(=O)CNC(=O)c1nccc(-c2cccc3cc(Cc4cccc(C(F)(F)F)c4)sc23)n1` came in with a melting point of 241 to 242 °C.

With `CSc1nnc(C(N)(c2ccc(Cl)cc2)c2ccc3nc(C)cc(-c4cccc(Cl)c4)c3c2)n1C` (stereo unspecified), the melting point was found to be 128 °C.

`COc1ccc([C@]2(O)OCC(C)(C)N[C@H]2C)cc1` came in with a melting point of 170 to 172 °C.

As for `COc1nc(NC(=O)NS(=O)(=O)CC(C)Cl)nc(OC)n1` (stereo unspecified), the melting point lay in the range of 139 to 141 °C.

For `N#Cc1c(C(F)(F)F)ccc(Cl)c1F`, the melting point was 43 to 44 °C.

In turn, `Cc1ccc(Cl)c(C(N)=O)c1N` had a melting point of 149 to 152 °C.

Compound `O=C1c2ccccc2C(=O)N1Cc1cc(Cl)ccc1OCc1cccnc1` returned a melting point of 173 to 175 °C.

Compound `CC(=O)NCc1ccc(C(C)Cl)cc1` (stereo unspecified) had a melting point of 58 to 62 °C.

With `CCCCCc1ccc(C(N)C(=O)O)[nH]1` (stereo unspecified), the melting point lay within 190 to 195 °C.

On to `CC(=O)COc1ccc(CC2SC(=O)NC2=O)cc1` (stereo unspecified), for which the melting point is 158 to 159 °C.

In the case of `O=C(Nc1ccc(C2(O)CCN(C(=O)OCc3ccccc3)CC2)cc1)OCc1ccccc1`, the melting point lay in the range of 156 to 158 °C.

For `Cc1c(S(=O)(=O)Nc2ccc(-c3nc(CCl)cs3)cc2S(C)(=O)=O)sc2ccc(F)cc12`, the melting point lay within 190 to 191 °C.

On to `NS(=O)(=O)c1sccc1C(F)=C(F)Cl`, for which the melting point was 112 to 116 °C.

Compound `C=CCN(c1ncnc2c1ncn2CCCCCCCCC(=O)O)C1CCCCC1` yielded a melting point of 100 to 102 °C.

Consider `CCCC(CC(=O)Nc1ccccc1)(OC)OC`, for which the melting point was determined as 88 °C.

Take `CC(=O)OCC(=O)Nc1nc(CN2CCC(c3c[nH]c4ccccc34)CC2)cs1`: the melting point lay in the range of 140 to 144 °C.

In turn, `C=CCNc1nc(-c2ccccc2)c(-c2ccc(=O)n(CC=C)n2)s1` gave a melting point of 146 to 147 °C.

With `CC(C)(C)C(O)C(=Cn1ccnc1)Oc1ccc(Cl)cc1` (stereo unspecified), the melting point lay within 141 to 143 °C.

Compound `CN(C)C(=O)Nc1ccc(-c2c[nH]c(=O)cn2)cc1` displayed a melting point of 256 to 260 °C.

`CC(C)(C)OC(=O)C1(ON=C(C(=O)O)c2ccco2)CCCC1`: the melting point is 107 °C.

`COc1ccc(Cl)c(NC(=O)N(C)c2cc(Nc3ccc(N4CCN(C)CC4)cc3)ncn2)c1Cl` gave a melting point of 162 to 163 °C.

With `COc1cc(C=O)c(C=O)cc1OCCCl`, the melting point lay within 113 to 114 °C.

As to `COc1cc2[nH]c(=O)c3c(c2cc1OC)CCN(CCN1CCCCC1)C3`, the melting point fell in the range of 185 to 188 °C.

With `CCc1cc(Cl)cc2c1NC(C)NS2(=O)=O` (stereo unspecified), the melting point lay within 181 to 183 °C.

On to `CCCOc1ccccc1-c1nc(O)cc(Cl)n1`, for which the melting point worked out at 116 °C.

In turn, `C=CCOc1ccc(C(=O)c2ccc(Cl)c(S(=O)(=O)N=CN(C)C)c2)c(Cl)c1Cl` showed a melting point of 141 to 142 °C.

In the case of `CC(=O)Nc1ccc(S(F)(F)(F)(F)F)cc1`, the melting point was 131 to 132 °C.

Turning to `CN1CCN(C2=Nc3ccccc3N(C)c3cscc32)CC1`, the melting point is 83 to 85 °C.

For `CC(=O)NC(=NNNc1ccccc1[N+](=O)[O-])c1ccccc1Cl`, the melting point lay in the range of 196 to 198 °C.

`Cc1sc(-c2ccccc2)nc1COc1ccc(CCCC2OCCO2)cc1`: the melting point was 80 to 81 °C.

As for `Cn1c(OCc2ccccc2)noc1=O`, the melting point was in the range of 80 to 83 °C.

Regarding `CN(C)C(=O)N[C@H]1CC[C@H](CCN2CCN(c3nccc4c3CCO4)CC2)CC1`, the melting point stood at 260 °C.

For `O=C1C(c2ccc3c(c2)OCO3)c2ccccc2N1Cc1ccc(Cl)cc1` (stereo unspecified), the melting point fell in the range of 161 to 163 °C.

`CCCC(C=NNC(=O)OCC)c1ccc(Cl)cc1Cl` (stereo unspecified) came in with a melting point of 127 to 129 °C.

On to `Cc1nc(-c2cn(CCC3CC3)nn2)sc1C(=O)NCc1cccnc1`, for which the melting point was in the range of 124 to 125 °C.

Compound `NS(=O)(=O)c1cc2c(cc1Cl)NCN(CCO)S2(=O)=O` yielded a melting point of 199 to 203 °C.

A word on the melting point: it is the temperature, or range, at which the solid turns liquid.
